Marks after values point to notes of the source that are not given here.
Key:
[1] = MTT viability assay, normal colonic epithelial cells; assay type: cell-based, human; settings: human, CCD 841 CoTr normal colonic epithelial cells, Non-toxic = no toxicity in tested range 1–500 μM, read-out: CC50 ± SD, CCD 841 CoTr
Description: (§1) The cytotoxic effects of ten newly synthesized N-Mannich bases were assessed on the normal human intestinal epithelium (CCD 841 CoTr) and cancer cell lines: gastric cancer (EPG) and four colorectal cancer lines (Caco-2, LoVo, LoVo/Dx, and HT-29). Cell viability was evaluated using the MTT assay in accordance with Annex C of ISO 10993-5 [33].
(§2) The biological activity of the newly synthesized compounds was assessed in the context of anticancer activity. For this purpose, several gastrointestinal cancer lines were selected: gastric cancer (EPG 257, which belongs to the collection of the Laboratory of Cell Culture and Advanced Therapy at the University of Environmental and Life Sciences in Wrocław), and four colorectal cancer cell lines (LoVo, Caco-2, and HT-29) were obtained from the European Collection of Authenticated Cell Cultures (ECACC) and were delivered by Sigma-Aldrich, a certified distributor for the biobank. Additionally, LoVo cells were used to develop a doxorubicin-resistant subline, referred to as LoVo/Dx. Resistance was induced through gradual adaptation to increasing concentrations of doxorubicin, starting from 0.1 µg/mL and incrementally raised to 0.8 µg/mL. After reaching the maximum concentration, the cells were maintained in a medium containing 0.4 µg/mL doxorubicin for a period of three months to stabilize the resistant phenotype. […] The resulting LoVo/Dx subline, resistant to doxorubicin, was cultured in DMEM/F-12 medium and utilized in assays evaluating the effectiveness of novel compounds against multidrug-resistant cancer cells. […] The non-cancerous cell control was normal colonic epithelial cells (CCD 841 CoTr from American Type Culture Collection, (ATCC, Manassas, VA, USA)). Cell cultures were performed under standard conditions (5% CO2, 95% humidity, and 37 °C). Each cell line was cultured in the recommended medium: (1) HT-29 in McCoy’s 5a, (2) Caco-2 in Minimal Essential Medium (MEM, Biological Industries, Beit Haemek, Israel), (3) CCD 841 CoTr in Dulbecco’s Modified Eagle Medium (DMEM, Biological Industries, Beit Haemek, Israel), (4) LoVo in Dulbecco’s Modified Eagle Medium/F-12 (DMEM/F-12; Biological Industries, Beit Haemek, Israel), (5) LoVo/Dx in DMEM/F-12, and (6) EPG in DMEM. Culture media were supplemented with 10% fetal bovine serum (FBS, Sigma-Aldrich, Darmstadt, Germany) and antibiotics (penicillin and streptomycin; Sigma-Aldrich, Darmstadt, Germany). For assays, trypsinized (TrypLE solution, Thermo Fisher Scientific, Waltham, MA, USA) cells were seeded at appropriate densities of 10,000 cells per well for MTT and determination of apoptotic and necrotic cell numbers; 30,000 cells per well for the rhodamine accumulation assay; and 500,000 cells per well for ELISA tests.
(§3) The cytotoxicity of the compounds and drugs used as controls was assessed using the MTT assay. The assay also included a DMSO control. After seeding and allowing the cells to adhere overnight, they were treated with the tested compounds and drugs for another 24 h. After this time, the supernatant was removed, and a 1 mg/mL MTT solution was added for 2 h in 5% CO2, 95% humidity, at 37 °C. The supernatant was then removed, and isopropanol was added to dissolve the purple crystals over 30 min by shaking. Absorbance was measured at 570 nm in a Multiskan GO microplate reader (Thermo Fisher Scientific; Waltham, MA, USA). All reagents used for the assays were purchased from Sigma-Aldrich, Darmstadt, Germany.
(§4) Biological assays were performed in three independent replicates, each involving four samples. ELISA determinations were repeated three times.

[2] = test system: EPG cells; assay: MTT viability assay, gastric cancer cells; assay type: cell-based, human; settings: for SI, EPG: CC50 CCD 841 CoTr / CC50 EPG; for CC50: Homo sapiens, MTT, 24 h, read-out: CC50 ± SD, EPG
Description: as §1, §2, §3, §4

[3] = test system: LoVo cells; assay: MTT viability assay, colorectal cancer cells LoVo; assay type: cell-based, human; settings: for SI, LoVo: CC50 CCD 841 CoTr / CC50 LoVo
Description: as §1, §2, §3, §4

[4] = test system: LoVo/Dx cells; assay: MTT viability assay, doxorubicin-resistant LoVo/Dx; assay type: cell-based, human; settings: for SI, LoVo/Dx: CC50 CCD 841 CoTr / CC50 LoVo/Dx; for CC50: Homo sapiens, LoVo/DX, MTT, 24 h, read-out: CC50 ± SD, LoVo/Dx
Description: as §1, §2, §3, §4

[5] = test system: HT-29 cells; assay: MTT viability assay, colorectal cancer cells HT-29; assay type: cell-based, human; settings: for SI, HT-29: CC50 CCD 841 CoTr / CC50 HT-29; for CC50: Homo sapiens, HT-29, MTT, 24 h, read-out: CC50 ± SD, HT-29
Description: as §1, §2, §3, §4

[6] = target: T1, P-glycoprotein (HT-29 cells) (Homo sapiens, UniProt P08183); assay: Rhodamine-123 accumulation assay in HT-29; assay type: cell-based; settings: 50 µM, 24 h; versus untreated control
T1 construct: intracellular accumulation of rhodamine 123 (a fluorescent P-gp substrate analog) in P-gp-expressing cell lines (HT-29, LoVo, and LoVo/Dx); endogenous in cells; host or cells: HT-29, LoVo (ECACC via Sigma-Aldrich); LoVo/Dx (doxorubicin-selected subline of LoVo)
Text: (§5) This test measured the intracellular accumulation of rhodamine 123 (a fluorescent P-gp substrate analog) in P-gp-expressing cell lines (HT-29, LoVo, and LoVo/Dx). Following accumulation and efflux phases, the fluorescence of rhodamine 123 (Rh-123) was quantified using spectrofluorimetry. The results are illustrated in Figure 3. Verapamil, a calcium channel blocker, served as a positive control for P-gp inhibition due to its well-established ability to inhibit P-gp activity. Verapamil binds to P-gp, inhibiting its function, which increases the intracellular concentration of chemotherapeutic drugs and other P-gp substrates.
(§6) The activity was measured for cells treated with a 50 µM concentration of the compounds and drugs in the recommended media for each cell line (without FBS) in a volume of 100 µL for 24 h. In this test, verapamil served as the control. After the incubation period, a 10 mM Rhodamine-123 (Rh-123) solution was prepared in a 1:1 DMSO mixture. […] Fluorescence was measured at 485 nm excitation and 538 nm emission using a Biotek Synergy H1 microplate reader (Agilent Technologies, Inc., Santa Clara, CA, USA). […]
(§7) Results are expressed as the mean ± SD (standard deviation) relative to the respective control (E/E0), where E represents the mean result for the measured sample, and E0 represents the mean result for the control. […]

[7] = target: T2, P-glycoprotein (LoVo cells) (Homo sapiens, UniProt P08183); assay: Rhodamine-123 accumulation assay in LoVo; assay type: cell-based; settings: 50 µM, 24 h; versus untreated control
T2 construct: intracellular accumulation of rhodamine 123 (a fluorescent P-gp substrate analog) in P-gp-expressing cell lines (HT-29, LoVo, and LoVo/Dx); endogenous in cells; host or cells: HT-29, LoVo (ECACC via Sigma-Aldrich); LoVo/Dx (doxorubicin-selected subline of LoVo)
Text: as §5, §6, §7

[8] = target: T3, P-glycoprotein (LoVo/Dx cells) (Homo sapiens, UniProt P08183); assay: Rhodamine-123 accumulation assay in LoVo/Dx; assay type: cell-based; settings: 50 µM, 24 h; versus untreated control
T3 construct: intracellular accumulation of rhodamine 123 (a fluorescent P-gp substrate analog) in P-gp-expressing cell lines (HT-29, LoVo, and LoVo/Dx); endogenous in cells; host or cells: HT-29, LoVo (ECACC via Sigma-Aldrich); LoVo/Dx (doxorubicin-selected subline of LoVo)
Text: as §5, §6, §7

T3 sequence (P08183 whole entry): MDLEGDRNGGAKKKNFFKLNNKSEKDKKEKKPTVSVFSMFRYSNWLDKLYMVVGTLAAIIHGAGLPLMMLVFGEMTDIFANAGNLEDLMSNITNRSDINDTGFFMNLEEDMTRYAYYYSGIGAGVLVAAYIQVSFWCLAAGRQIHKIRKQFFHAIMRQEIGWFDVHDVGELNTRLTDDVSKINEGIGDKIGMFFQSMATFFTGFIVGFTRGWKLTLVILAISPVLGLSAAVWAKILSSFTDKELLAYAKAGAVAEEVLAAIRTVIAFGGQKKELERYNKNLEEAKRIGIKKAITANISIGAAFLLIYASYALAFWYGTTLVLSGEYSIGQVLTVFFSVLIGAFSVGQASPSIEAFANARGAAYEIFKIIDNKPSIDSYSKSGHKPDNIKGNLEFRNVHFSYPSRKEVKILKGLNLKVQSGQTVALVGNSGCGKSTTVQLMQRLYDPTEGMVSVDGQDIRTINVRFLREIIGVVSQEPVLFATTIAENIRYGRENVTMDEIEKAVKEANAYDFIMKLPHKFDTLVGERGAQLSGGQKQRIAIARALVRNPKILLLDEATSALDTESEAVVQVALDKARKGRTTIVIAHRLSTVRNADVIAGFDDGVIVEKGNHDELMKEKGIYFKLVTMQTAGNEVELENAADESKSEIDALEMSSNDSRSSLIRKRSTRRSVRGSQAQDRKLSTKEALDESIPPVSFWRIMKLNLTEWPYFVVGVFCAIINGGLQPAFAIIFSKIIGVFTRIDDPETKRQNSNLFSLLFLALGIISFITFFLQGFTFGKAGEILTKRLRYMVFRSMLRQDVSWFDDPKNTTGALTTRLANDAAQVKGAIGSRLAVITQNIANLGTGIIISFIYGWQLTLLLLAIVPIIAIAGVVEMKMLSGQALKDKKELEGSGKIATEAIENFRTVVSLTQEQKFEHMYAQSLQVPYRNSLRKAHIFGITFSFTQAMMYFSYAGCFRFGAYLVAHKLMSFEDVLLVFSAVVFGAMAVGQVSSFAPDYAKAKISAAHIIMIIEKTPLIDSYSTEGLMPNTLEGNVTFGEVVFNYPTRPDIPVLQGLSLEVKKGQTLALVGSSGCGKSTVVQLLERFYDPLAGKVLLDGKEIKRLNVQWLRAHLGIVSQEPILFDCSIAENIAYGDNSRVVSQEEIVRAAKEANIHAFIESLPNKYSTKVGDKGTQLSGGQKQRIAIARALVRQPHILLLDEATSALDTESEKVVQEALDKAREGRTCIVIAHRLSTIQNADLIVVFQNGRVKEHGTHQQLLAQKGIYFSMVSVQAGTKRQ
T1 sequence (P08183 whole entry): as above
T2 sequence (P08183 whole entry): as above

SMILES | CC50 at 24 h [1] [µM] | SI, EPG [2] | CC50 [2] [µM] | SI, LoVo [3] | CC50 ± SD, LoVo ([3]; MTT, 24 h, Non-toxic = no toxicity in tested range 1–500 μM) | SI, LoVo/Dx [4] | CC50 [4] [µM] | SI, HT-29 [5] | CC50 [5] [µM] | Increase of Rh-123 accumulation, HT-29 [6] [fold] | Increase of Rh-123 accumulation, LoVo [7] [fold] | Increase of Rh-123 accumulation, LoVo/Dx [8] [fold] | CC50 ([3]; Homo sapiens, LoVo, MTT, 24 h, Non-toxic = no toxicity in tested range 1–500 μM, read-out: CC50 ± SD, LoVo) [µM]
Cc1cc(C)c(C(=O)NCc2nn(CN3CCN(c4cccc(Cl)c4)CC3)c(=S)n2-c2ccccc2)c(S)n1 [Compound 5, 4,6-dimethyl-N-[(4-phenyl-5-thioxo-2-{[4-(3-chlorophenyl)piperazinyl]methyl}-4,5-dihydro-1H-1,2,4-triazol-3-yl)methyl]-2-sulfanylpyridine-3-carboxamide] | 221 ± 2.4 | 2.66 | 83 ± 4.6 | >>1 ^c | Non-toxic ^b | 1.20 | 184 ± 2.7 | 2.15 | 102 ± 2.7 | 1.23 | 2.8 | 4.2 | –
Cc1ccc(N2CCN(Cn3nc(CNC(=O)c4c(C)cc(C)nc4S)n(-c4ccccc4)c3=S)CC2)cc1 [Compound 6] | 388 ± 6.5 | 6.72 | 57.7 ± 5.4 | 2.37 | – | 1.99 | 195 ± 5.7 | 3.16 | 123 ± 3.9 | 1.46 | 2.55 | 3.5 | 163 ± 4.6

Reference: publication PMC12294558, “New 1,2,4-Triazole Derivatives with a N-Mannich Base Structure Based on a 4,6-Dimethylpyridine Scaffold as Anticancer Agents: Design, Synthesis, Biological Evaluation, and Molecular Modeling” (International Journal of Molecular Sciences, 2025)
